In patent US6514981B1, “Methods of modulating tyrosine protein kinase function with indolinone compounds” (Sugen, Inc., priority 1998, dated 2003):

System: HUV-EC-C cells
Assay: HUV-EC-C assay (3H-thymidine), VEGF
Assay type: cell-based
Conditions: Homo sapiens, 3H-thymidine incorporation, HUVEC
Protocol: The following protocol may also be used to measure a compound's activity against PDGF-R, FGF-R or Flk-1/KDR, all of which are naturally expressed by HUV-EC cells. 1. Wash and trypsinize HUV-EC-C cells (human umbilical vein endothelial cells, (American Type Culture Collection; catalogue no. 1730 CRL). Wash with Dulbecco's phosphate-buffered saline (D-PBS; obtained from Gibco BRL, catalogue no. 14190-029) 2 times at about 1 mL/10 CM^2 of tissue culture flask. Trypsinize with 0.05% trypsin-EDTA in non-enzymatic cell dissociation solution (Sigma Chemical Company; catalogue no. C-1544). The 0.05% trypsin was made by diluting 0.25% trypsin/1 mM EDTA (Gibco; catalogue no. 25200-049) in the cell dissociation solution. Trypsinize with about 1 mL/25-30 cm^2 of tissue culture flask for about 5 minutes at 37° C. After cells have detached from the flask, add an equal volume of assay medium and transfer to a 50 mL sterile centrifuge tube (Fisher Scientific; catalogue no. 05-539-6). 2. Wash the cells with about 35 mL assay medium in the 50 mL sterile centrifuge tube by adding the assay medium, centrifuge for 10 minutes at approximately 200×g aspirate the supernatant and resuspend with 35 mL D-PBS. Repeat the wash two more times with D-PBS, resuspend the cells in about 1 mL assay medium/15 cm^2 of tissue culture flask. […]

IC50: 0.68 µM
Structure (SMILES): Cc1cc(/C=C2/C(=O)Nc3ccccc32)c(C)c2c1[nH]c1ccccc12 [VI]
